Results taken from patent publication US10653676B2 (Dana-Farber Cancer Institute, Inc., priority 2010, dated 2020).

What was measured:
UCH-L3 = target: T1, UCH-L3 (Homo sapiens, UniProt P15374); test: deubiquitinating enzyme assay with UCH-L3; type: biochemical; conditions: in vitro
T1 sequence (P15374 1-230): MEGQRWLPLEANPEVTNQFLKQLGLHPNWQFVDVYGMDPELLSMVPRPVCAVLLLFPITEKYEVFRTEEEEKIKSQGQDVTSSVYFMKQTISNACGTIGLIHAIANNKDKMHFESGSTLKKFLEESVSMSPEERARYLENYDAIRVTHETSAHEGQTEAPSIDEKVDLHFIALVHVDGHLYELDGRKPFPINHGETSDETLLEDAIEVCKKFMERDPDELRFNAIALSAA
Method: The in vitro enzymatic assays were performed using purified proteins from Sf9 cells as described previously (Cohn et al.). The assays using ubiquitin-AMC (Ub-7-amido-4-methylcoumarin; Boston Biochem) as substrate was carried out in a reaction buffer containing 20 mM HEPES-KOH (pH 7.8), 20 mM NaCl, 0.1 mg/ml ovalbumin, 0.5 mM EDTA and 10 mM dithiothreitol. The fluorescence was measured by FluoStar Galaxy Fluorometer (BMG Labtech). For the Ub-vinylsulfone (VS) assay, the proteins were incubated with Ub-VS at 0.5 μM final concentration for 1 h at 30° C., followed by the immunoblotting analysis.
To examine the specificity of C527 in USP1/UAF1 inhibition, its ability to inhibit other DUB enzymes in vitro was examined. […] Moreover, the active complex of USP12 contains an additional WD40 subunit (WDR20). […] UCH-L1 and UCH-L3 are members of a different subclass of deubiquitinating enzymes, referred to as the ubiquitin-carboxy terminal hydrolases (Mermerian A H, Case A, Stein R L, Cuny G D. Structure-activity relationship, kinetic mechanism, and selectivity for a new class of ubiquitin C-terminal hydrolase-L1 (UCH-L1) inhibitors. Bioorg Med Chem Lett. 2007; 17:3729-3732). […] Taken together, C527 is a pan-deubiquitinating enzyme inhibitor in vitro, though it has some specificity for the USP subfamily of DUBs, compared to the UCH subfamily.

HeLa cells [1] = test: clonogenic assay; type: cell-based, human; conditions: FIG. 9B
Method: FIG. 9 is a composite figure showing that C527 causes DNA damage and inhibits the proliferation of tumor cells. […] HeLa cells were treated with C527 at the indicated concentrations for 24 hrs, and cells were subjected to immunoblotting. Mitomycin C (MMC, 1 μM) was used as a positive control. […] HeLa cells were seeded in a 6-well plate and treated with C527 at the indicated concentrations. Cell proliferation was evaluated using a clonogenic assay.
Cells were seeded in 6-well plate at 500 cells per well followed by treatment with C527. Colonies were allowed to grow for 7-10 days, fixed with a solution containing 10% Methanol and 10% acetic acid at room temperature for 15 min and then stained with 1% crystal violet in methanol. Colonies of >50 cells were counted, and the surviving fraction was calculated and normalized to untreated control.
Impaired HR integrity may lead to genotoxic effect. Genotoxic agents are known to directly activate DNA damage response pathways, resulting in FANCD2 monoubiquitination and CHK1 phosphorylation (FIG. 9A).

HeLa cells [2] = test: sensitization to DNA damaging agents, MTT assay; type: cell-based, human; conditions: 1 μM C527 for 24 h, FIG. 10
Method: FIG. 10 is a composite figure showing that C527 sensitizes tumor cells to DNA damaging agents. HeLa cells were plated in 96-well plates and treated with 1 μM C527 for 24 h, followed by treatment with mitomycin C (MMC, 0.25 μM), camptothcin (CPT, 0.1 μM), or etoposide for 4 more days. Cell viability was assessed using the MTT assay.
HeLa cells were seeded in 96-well plate and treated with C527 for 4 more days. 20 μL MTT (Sigma) at 5 mg/mL was added to each well and cells were left at 37° C. for incubation. 4 h later, the metabolic product was dissolved in a solution containing 10% SDS, 5% isopropanol and 0.01 mol/L HCl. Optical density at 565 nm was measured in an automated plate reader. The percentage of cell survival was determined by normalizing to solvent vehicle treated cells.
Inhibitors of the FA-BRCA pathway are known to sensitize tumor cells to the cytotoxic effects of ICL-[…] agents. Specifically, it is known that proteasome inhibitors block FANCD2 monoubiquitination, perhaps through depletion of intracellular pools of free ubiquitin, resulting in inhibition of HR repair (Chirnomas D, Taniguchi T, de la Vega M, et al. Chemosensitization to cisplatin by inhibitors of the Fanconi anemia/BRCA pathway. Mol Cancer Ther. 2006; 5:952-961). The ability of C527 to sensitize pretreated human cells to MMC or to other agents was tested.

O=C1c2ccccc2C(=O)c2oc(-c3ccc(F)cc3)nc21 [Formula IV (527)]
inhibitory effect on UCH-L3 (UCH-L3): considerably less inhibitory effect
cell proliferation (HeLa cells [1]): inhibited cell proliferation
sensitization of cells to CPT (HeLa cells [2]; then CPT 0.1 μM for 4 more days): sensitized cells
sensitization of cells to MMC (HeLa cells [2]; then MMC 0.25 μM for 4 more days): sensitized cells
sensitization of cells to etoposide (HeLa cells [2]; then etoposide for 4 more days): not to etoposide
